Reference: patent US10512644B2, “Oligomer-opioid agonist conjugates” (Nektar Therapeutics, priority 2007, dated 2019)
pEC50, pIC50, pKi: −log10 of the molar value. Where two headings read alike, the source gives them in different places.

What was measured:
[1] = molecular target: T1, mu opioid receptor (Homo sapiens (Human), UniProt P35372); test: cell-based; format: binding; details: whole CHO cells, 0.5 nM 3H Naloxone; read-out: Ki at MU Receptors
Experimental: (§1) Using conventional receptor binding assay techniques, several molecules were assayed to determine binding activity at kappa, mu and delta opioid subtypes of opioid receptors.
(§2) Cells were plated in 24 well plates at a density of 0.2-0.3*10^6 cells/well and washed with assay buffer containing 50 mM Tris.HCl and 5 mM MgCl2 (pH 7.4). Competition binding assays were conducted in whole cells incubated with increasing concentrations of test compounds in the presence of appropriate concentration of radioligand. 0.5 nM ^3H Naloxone, 0.5 nM ^3H Diprenorphine and 0.5 nM ^3H DPDPE were used as the competing radioligands for mu, kappa and delta receptors respectively. Incubations were carried out for two hours at room temperature using triplicate wells at each concentration. At the end of the incubation, cells were washed with 50 mM Tris HCl (pH 8.0), solubilized with NaOH and bound radioactivity was measured using a scintillation counter.
(§3) Specific binding is determined by subtraction of the cpm bound in the presence of 50-100× excess of cold ligand. Binding data assays were analyzed using GraphPad Prism 4.0 and IC50 is generated by non-linear regression from dose-response curves.

[2] = molecular target: T2, recombinant human kappa opioid receptor (Homo sapiens (Human), UniProt P41145); test: cell-based; format: binding; details: whole CHO cells, 0.5 nM 3H Diprenorphine; read-out: Ki at KAPPA receptors
Experimental: as §1, §2, §3

[3] = molecular target: recombinant human delta opioid receptor (Homo sapiens (Human), UniProt P41143); test: Radioligand competition binding in whole CHO cells, delta opioid receptor (3H DPDPE)
Experimental: as §1, §2, §3

[4] = molecular target: T2, recombinant human kappa opioid receptor; test: biochemical; details: agonist mode; read-out: Kappa Agonist EC50, GTP-γS Binding
Experimental: (§4) The reaction is initiated by 0.3 nM [^35S]GTPγS for an additional 30 minutes incubation period. Test compound-induced increase of [^35S]GTPγS binding by 50 percent or more (≥50%) relative to the receptor subtype-specific agonist response indicates possible opiate receptor agonist activity.

[5] = molecular target: T1, mu opioid receptor; test: biochemical; details: antagonist mode vs 1 μM DAMGO; read-out: Mu Antagonist IC50, GTP-γS Binding
Experimental: as §4

[6] = in vivo; details: rat, iv, 25 mg/kg
[7] = test system: CD-1 male mice (phenylquinone-induced writhing, visceral pain); test: Phenylquinone writhing analgesic assay; format: in vivo; details: mPEGn-O-HydroxyCodone series, writhing 35-45 min after pretreatment
Experimental: Mice were treated according to standard protocols. Mice were given a single “pretreatment” dose of a compound lacking covalent attachment of a water-soluble, non-peptidic oligomer (i.e., non-PEG oligomer-modified parent molecule), a corresponding version comprising the compound covalently attached to a water-soluble, non-peptidic oligomer (i.e., the conjugate), or control solution (IV, SC, IP or orally) thirty minutes prior to the administration of the phenylquinone (PQ) solution. Each animal was given an IP injection of an irritant (phenylquinone, PQ) that induces “writhing” which may include: contractions of the abdomen, twisting and turning of the trunk, arching of the back, and the extension of the hindlimbs. Each animal was given an IP injection of PQ (1 mg/kg PQ, 0.1 mL/10 g bodyweight). After the injection, the animals were returned to their observation enclosure and their behavior was observed. Contractions were counted between 35 and 45 minutes after the “pretreatment”. The animals were used once. Each tested article was dosed at a range between 0.1 and 100 mg/kg (n=5-10 animals/dose).

[8] = molecular target: T1, mu opioid receptor; format: binding; details: mean IC50 ratio, ↓ = lower affinity
Experimental: Using conventional in vitro mu opioid receptor binding affinity assays, IC50 values were determined for each of alpha-6-mPEGn-O-hydrocodonol compounds.

[9] = Plasma pharmacokinetics after intravenous dosing in male Sprague-Dawley rats; details: IV 1 mg/kg, PEGylated hydroxycodone
[10] = molecular target: cloned human mu opioid receptor (Homo sapiens (Human), UniProt P35372); format: cell-based; details: inhibition of cAMP formation, 3 μM forskolin, whole cells
Experimental: The efficacy of the various PEG-opioid conjugates was measured by their ability to inhibit cAMP formation following receptor activation. Studies were conducted in CHO cells heterologously expressing the cloned human mu, kappa or delta opioid receptors. cAMP was measured using a cAMP HiRange homogenous time-resolved fluorescence assay (HTRF Assay), that is based on a competitive immunoassay principle (Cisbio, Cat.#62AM6PEC).
Briefly, suspensions of cells expressing either the mu, kappa or delta opioid receptors were prepared in buffer containing 0.5 mM isobutyl-methyl xanthine (IBMX). […] EC50 values were calculated for each compound from a sigmoidal dose-response plot of concentrations versus maximum response. To determine if the compounds behaved as full or partial agonists in the system, the maximal response at the highest tested concentrations of compounds were compared to that produced by a known full agonist.

Sequence of recombinant human delta opioid receptor (P41143 whole entry, looked up): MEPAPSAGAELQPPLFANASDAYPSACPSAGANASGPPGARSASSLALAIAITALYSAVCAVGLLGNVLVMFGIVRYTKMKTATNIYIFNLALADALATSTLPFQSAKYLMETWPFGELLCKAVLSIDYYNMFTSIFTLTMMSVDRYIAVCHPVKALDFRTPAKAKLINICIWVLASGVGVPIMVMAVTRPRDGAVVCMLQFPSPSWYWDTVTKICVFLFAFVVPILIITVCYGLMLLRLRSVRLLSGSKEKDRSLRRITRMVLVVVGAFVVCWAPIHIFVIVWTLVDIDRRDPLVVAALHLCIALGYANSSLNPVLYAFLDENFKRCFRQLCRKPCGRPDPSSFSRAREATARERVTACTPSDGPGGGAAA

COCCOCCOCCO[C@H]1CC[C@@]2(O)[C@H]3Cc4ccc(O)c5c4[C@@]2(CCN3CC2CCC2)[C@H]1O5 [6-O-mPEG3-Nalbuphine, 6-O-mPEG3-nalbuphine]
pKi [1]: 7.56 | pKi [2]: 6.66 | pKi [3]: 6.79 | pEC50 [4]: 7.57 | pIC50 [5]: 6.40 | Kp at 1 h [6]: 0.23

COCCOCCOCCOCCO[C@H]1CC[C@@]2(O)[C@H]3Cc4ccc(O)c5c4[C@@]2(CCN3CC2CCC2)[C@H]1O5 [6-O-mPEG4-Nalbuphine, 6-O-mPEG4-nalbuphine]
pKi [1]: 7.76 | pKi [3]: 6.83

COc1ccc2c3c1O[C@H]1C(=O)CC[C@@]4(O)[C@@H](C2)N(C)CC[C@]314 [Oxycodone, oxycodone, reference compound]
ED50 ([7]; Mus musculus, read-out: ED50): 0.619 mg/kg

COc1ccc2c3c1O[C@H]1[C@@H](O)CC[C@H]4[C@@H](C2)N(C)CC[C@@]341 [α-6-Hydrocodonol, 6-hydrocodonol, reference compound]
Fold Change vs. Hydrocodone [8]: 7.50 ↓

COCCO[C@H]1CC[C@H]2[C@H]3Cc4ccc(OC)c5c4[C@@]2(CCN3C)[C@H]1O5 [α-6-mPEG1-O-Hydrocodonol]
Fold Change vs. Hydrocodone [8]: 6.03 ↓

COCCO[C@H]1CC[C@@]2(O)[C@H]3Cc4ccc(OC)c5c4[C@@]2(CCN3C)[C@H]1O5 [α-6-mPEG1-O-Hydroxycodone, α-6-mPEG1-O-hydroxycodone]
ED50 [7]: 6.064 mg/kg | mean exposure (AUC) as compared to oxycodone [9]: slightly lower mean exposure

COCCOCCO[C@H]1CC[C@H]2[C@H]3Cc4ccc(OC)c5c4[C@@]2(CCN3C)[C@H]1O5 [α-6-mPEG2-O-Hydrocodonol]
Fold Change vs. Hydrocodone [8]: 5.84 ↓

COCCOCCO[C@H]1CC[C@@]2(O)[C@H]3Cc4ccc(OC)c5c4[C@@]2(CCN3C)[C@H]1O5 [α-6-mPEG2-O-Hydroxycodone, α-6-mPEG2-O-hydroxycodone]
mean exposure (AUC) as compared to oxycodone [9]: slightly lower mean exposure

COCCOCCOCCO[C@H]1CC[C@H]2[C@H]3Cc4ccc(OC)c5c4[C@@]2(CCN3C)[C@H]1O5 [α-6-mPEG3-O-Hydrocodonol]
Fold Change vs. Hydrocodone [8]: 5.87 ↓

COCCOCCOCCOCCO[C@H]1CC[C@H]2[C@H]3Cc4ccc(OC)c5c4[C@@]2(CCN3C)[C@H]1O5 [α-6-mPEG4-O-Hydrocodonol]
Fold Change vs. Hydrocodone [8]: 7.14 ↓

COCCOCCOCCOCCO[C@H]1CC[C@@]2(O)[C@H]3Cc4ccc(OC)c5c4[C@@]2(CCN3C)[C@H]1O5 [α-6-mPEG4-O-Hydroxycodone, α-6-mPEG4-O-hydroxycodone]
ED50 [7]: 17.31 mg/kg | mean exposure (AUC) as compared to oxycodone [9]: slightly lower mean exposure

COCCOCCOCCOCCOCCO[C@H]1CC[C@H]2[C@H]3Cc4ccc(OC)c5c4[C@@]2(CCN3C)[C@H]1O5 [α-6-mPEG5-O-Hydrocodonol]
Fold Change vs. Hydrocodone [8]: 6.20 ↓

COCCOCCOCCOCCOCCOCCO[C@H]1CC[C@H]2[C@H]3Cc4ccc(OC)c5c4[C@@]2(CCN3C)[C@H]1O5 [α-6-mPEG6-O-Hydrocodonol]
Fold Change vs. Hydrocodone [8]: 11.12 ↓

COCCOCCOCCOCCOCCOCCO[C@H]1CC[C@@]2(O)[C@H]3Cc4ccc(OC)c5c4[C@@]2(CCN3C)[C@H]1O5 [α-6-mPEG6-O-Hydroxycodone, α-6-mPEG6-O-hydroxycodone]
mean exposure (AUC) as compared to oxycodone [9]: comparable mean exposure

COCCOCCOCCOCCOCCOCCOCCO[C@H]1CC[C@H]2[C@H]3Cc4ccc(OC)c5c4[C@@]2(CCN3C)[C@H]1O5 [α-6-mPEG7-O-Hydrocodonol]
Fold Change vs. Hydrocodone [8]: 26.32 ↓

COCCOCCOCCOCCOCCOCCOCCO[C@H]1CC[C@@]2(O)[C@H]3Cc4ccc(OC)c5c4[C@@]2(CCN3C)[C@H]1O5 [α-6-mPEG7-O-Hydroxycodone, α-6-mPEG7-O-hydroxycodone]
mean exposure (AUC) as compared to oxycodone [9]: higher mean exposure

COCCOCCOCCOCCOCCOCCOCCOCCO[C@H]1CC[C@H]2[C@H]3Cc4ccc(OC)c5c4[C@@]2(CCN3C)[C@H]1O5 [α-6-mPEG8-O-Hydrocodonol]
Fold Change vs. Hydrocodone [8]: 40.10 ↓

COCCOCCOCCOCCOCCOCCOCCOCCOCCO[C@H]1CC[C@H]2[C@H]3Cc4ccc(OC)c5c4[C@@]2(CCN3C)[C@H]1O5 [α-6-mPEG9-O-Hydrocodonol]
Fold Change vs. Hydrocodone [8]: 16.30 ↓

α-6-hydroxycodone
pEC50 [10]: 5.50
